Like-named read-outs stand apart in the source and are kept apart here.
What was measured:
[1] = system: H929 multiple myeloma tumour line; experiment: In vitro cytotoxicity, Microculture Tetrazolium Assay; assay type: cell-based; details: H929 cells, 48 hours exposure, read-out: IC50 (μM) MTT H929
Description: The cytotoxicity studies were carried out on the H929 multiple myeloma tumour line.
The cells are distributed onto microplates and exposed to the test compounds for 48 hours.

Mcl-1 protein = Mcl-1 protein (UniProtKB primary accession number: Q07820) (Homo sapiens, UniProt Q07820); experiment: Inhibition of Mcl-1 by fluorescence polarisation, Method 1; assay type: binding; details: read-out: IC50 (M) Mcl-1 FP
In short: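 FP competition, 11-point compound titration in 5% final DMSO; protein and labelled probe at 5 nM and 1 nM final in HEPES/NaCl/Tween 20 buffer, pH 7.4.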

[2] = Homo sapiens, NCI-H929, 48 h, MTT
[3] = fluorescence polarisation, Method 1, or Method 2
[4] = fluorescence polarisation test, Method 2 values are underlined in the patent (underlining not visible here)

Sequence of Mcl-1 protein (Q07820 whole entry): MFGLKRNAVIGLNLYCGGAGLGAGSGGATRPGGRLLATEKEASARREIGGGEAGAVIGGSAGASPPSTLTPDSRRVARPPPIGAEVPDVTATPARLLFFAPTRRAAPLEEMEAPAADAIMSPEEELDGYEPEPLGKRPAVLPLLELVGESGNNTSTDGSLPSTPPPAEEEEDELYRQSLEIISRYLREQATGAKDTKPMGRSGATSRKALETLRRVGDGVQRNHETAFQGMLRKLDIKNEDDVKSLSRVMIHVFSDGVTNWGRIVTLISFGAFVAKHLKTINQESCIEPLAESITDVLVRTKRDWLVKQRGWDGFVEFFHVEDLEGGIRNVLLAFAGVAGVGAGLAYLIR

Compound | IC50 (Mcl-1 protein; [3]) [M] | IC50 (Mcl-1 protein; [4]) [M] | IC50 [1, 2] [µM] | other results
CCCCn1nccc1COc1ccccc1CC(Oc1ncnc2sc(-c3ccc(CC)cc3)c(-c3ccc(OCCN4CCN(C)CC4)c(Cl)c3C)c12)C(=O)O [Example 601, (2R)-3-{2-[(1-butyl-1H-pyrazol-5-yl)methoxy]phenyl}-2-{[(5Sa)-5-{3-chloro-2-methyl-4-[2-(4-methylpiperazin-1-yl)ethoxy]phenyl}-6-(4-ethylphenyl)thieno[2,3-d]pyrimidin-4-yl]oxy}propanoic acid] | 1.2e-08 |  | 0.133 | 
COc1nccc(COc2ccccc2CC(Oc2ncnc3sc(-c4ccc(F)cc4)c(-c4cnc(OCCN5CCN(C)CC5)c(Cl)c4C)c23)C(=O)O)n1 [Example 651, (2R)-2-{[(5Ra)-5-{5-chloro-4-methyl-6-[2-(4-methylpiperazin-1-yl)ethoxy]pyridin-3-yl}-6-(4-fluorophenyl)thieno[2,3-d]pyrimidin-4-yl]oxy}-3-{2-[(2-methoxypyrimidin-4-yl)methoxy]phenyl}propanoic acid] | 6.8e-09 |  | 0.282 | 
COc1ccccc1-c1nccc(COc2ccccc2CC(Oc2ncnc3sc(-c4ccc(F)cc4)c(-c4ccc(OCCN5CCN(C)CC5)c(Cl)c4C)c23)C(=O)Oc2ccc3c(c2)CCC3)n1 [Example 809, 2,3-dihydro-1H-inden-5-yl (2R)-2-{[(5Sa)-5-{3-chloro-2-methyl-4-[2-(4-methylpiperazin-1-yl)ethoxy]phenyl}-6-(4-fluorophenyl)thieno[2,3-d]pyrimidin-4-yl]oxy}-3-(2-{[2-(2-methoxyphenyl)pyrimidin-4-yl]methoxy}phenyl)propanoate] |  |  |  | IC50 ([1]; Homo sapiens, NCI-H929, 48 h, cell viability): 0.047 µM; IC50 (Mcl-1 protein; fluorescence polarisation test, Method 1, or Method 2 where the value is underlined (underlining not visible)): 6.91e-07 M
Cc1c(-c2c(-c3ccc(Cl)o3)sc3ncnc(OC(Cc4ccccc4OCc4ccnn4C)C(=O)O)c23)ccc(OCCN2CCN(C)CC2)c1Cl [Example 371, (2R)-2-{[6-(5-chlorofuran-2-yl)-(5Sa)-5-{3-chloro-2-methyl-4-[2-(4-methylpiperazin-1-yl)ethoxy]phenyl}thieno[2,3-d]pyrimidin-4-yl]oxy}-3-{2-[(1-methyl-1H-pyrazol-5-yl)methoxy]phenyl}propanoic acid] |  | 5.6e-09 | 0.027 | 
Cc1c(-c2c(-c3ccc(Cl)s3)sc3ncnc(OC(Cc4ccccc4)C(=O)O)c23)ccc(OCCN2CCN(C)CC2)c1Cl [Example 501, (2R)-2-{[(5Sa)-5-{3-chloro-2-methyl-4-[2-(4-methylpiperazin-1-yl)ethoxy]phenyl}-6-(5-chlorothiophen-2-yl)thieno[2,3-d]pyrimidin-4-yl]oxy}-3-phenylpropanoic acid] | 2.8e-07 |  | 2.84 | 
CCc1sc2ncnc(O[C@H](Cc3ccccc3)C(=O)O)c2c1-c1ccc(OCCN(C)CCO)c(Cl)c1C [Example 411, (2R)-2-{[(5Sa)-5-(3-chloro-4-{2-[(2-hydroxyethyl)(methyl)amino]ethoxy}-2-methylphenyl)-6-ethylthieno[2,3-d]pyrimidin-4-yl]oxy}-3-phenylpropanoic acid] | 3.4e-08 |  |  | IC50 ([1]; MTT): 19 µM
Cc1c(-c2c(-c3ccc(F)cc3)sc3ncnc(OC(Cc4ccccc4OCc4cnccn4)C(=O)O)c23)ccc(OCC2CCCN2C)c1Cl [Example 143, (2R)-2-{[(5Sa)-5-{3-chloro-2-methyl-4-[(1-methylpyrrolidin-2-yl)methoxy]phenyl}-6-(4-fluorophenyl)thieno[2,3-d]pyrimidin-4-yl]oxy}-3-[2-(pyrazin-2-ylmethoxy)phenyl]propanoic acid] |  | 2.6e-08 | 1.61 | 
CCc1sc2ncnc(OC(Cc3ccccc3)C(=O)O)c2c1-c1ccc(OCCNC(C)=O)c(Cl)c1C [Example 422, (2R)-2-[((5Sa)-5-{4-[2-(acetylamino)ethoxy]-3-chloro-2-methylphenyl}-6-ethylthieno[2,3-d]pyrimidin-4-yl)oxy]-3-phenylpropanoic acid] | 1.4e-08 |  | 14.4 | 
Cc1c(-c2c(-c3ccc(F)o3)sc3ncnc(OC(Cc4ccccc4OCc4ccnc(C(F)(F)F)n4)C(=O)O)c23)ccc(OCCN2CCN(C)CC2)c1Cl [Example 169, (2R)-2-{[(5Sa)-5-{3-chloro-2-methyl-4-[2-(4-methylpiperazin-1-yl)ethoxy]phenyl}-6-(5-fluorofuran-2-yl)thieno[2,3-d]pyrimidin-4-yl]oxy}-3-(2-{[2-(trifluoromethyl)pyrimidin-4-yl]methoxy}phenyl)propanoic acid] |  | 9e-09 | 0.009 | 
COCCCn1nccc1COc1ccccc1CC(Oc1ncnc2sc(-c3ccc(F)cc3)c(-c3ccc(OCCN4CCN(C)CC4)c(Cl)c3C)c12)C(=O)O [Example 86, (2R)-2-{[(5Sa)-5-{3-chloro-2-methyl-4-[2-(4-methylpiperazin-1-yl)ethoxy]phenyl}-6-(4-fluorophenyl)thieno[2,3-d]pyrimidin-4-yl]oxy}-3-(2-{[1-(3-methoxypropyl)-1H-pyrazol-5-yl]methoxy}phenyl)propanoic acid] |  | 2.9e-09 | 0.063 | 
COc1ccccc1-c1nccc(COc2ccccc2CC(Oc2ncnc3sc(-c4ccc(OCc5ccn(C)n5)cc4)c(-c4ccc(OCCN5CCN(C)CC5)c(Cl)c4C)c23)C(=O)O)n1 [Example 776, (2R)-2-[((5Sa)-5-{3-chloro-2-methyl-4-[2-(4-methylpiperazin-1-yl)ethoxy]phenyl}-6-{4-[(1-methyl-1H-pyrazol-3-yl)methoxy]phenyl}thieno[2,3-d]pyrimidin-4-yl)oxy]-3-(2-{[2-(2-methoxyphenyl)pyrimidin-4-yl]methoxy}phenyl)propanoic acid] | 9.48e-10 |  | 0.007 | 
CNc1nccc(COc2ccccc2CC(Oc2ncnc3sc(-c4ccco4)c(-c4ccc(OCCN5CCN(C)CC5)c(Cl)c4C)c23)C(=O)O)n1 [Example 253, (2R)-2-{[(5Sa)-5-{3-chloro-2-methyl-4-[2-(4-methylpiperazin-1-yl)ethoxy]phenyl}-6-(furan-2-yl)thieno[2,3-d]pyrimidin-4-yl]oxy}-3-(2-{[2-(methylamino)pyrimidin-4-yl]methoxy}phenyl)propanoic acid] |  | 3.1e-09 | 0.041 | 

The next lines start with results.

IC50 (Mcl-1 protein; [3]) [M] | IC50 (Mcl-1 protein; [4]) [M] | Compound | IC50 [1, 2] [µM] | other results
4.5e-09 |  | CCOc1cccc(-c2sc3ncnc(OC(Cc4ccccc4OC)C(=O)O)c3c2-c2ccc(OCCN3CCN(C)CC3)c(Cl)c2C)c1 [Example 557, (2R)-2-{[(5Sa)-5-{3-chloro-2-methyl-4-[2-(4-methylpiperazin-1-yl)ethoxy]phenyl}-6-(3-ethoxyphenyl)thieno[2,3-d]pyrimidin-4-yl]oxy}-3-(2-methoxyphenyl)propanoic acid] | 0.475 | 
2.5e-08 |  | COc1ccccc1CC(Oc1ncnc2sc(-c3ccsc3)c(-c3ccc(OCCN4CCN(C)CC4)c(Cl)c3C)c12)C(=O)O [Example 568, (2R)-2-{[(5Sa)-5-{3-chloro-2-methyl-4-[2-(4-methylpiperazin-1-yl)ethoxy]phenyl}-6-(thiophen-3-yl)thieno[2,3-d]pyrimidin-4-yl]oxy}-3-(2-methoxyphenyl)propanoic acid] | 0.22 | 
3.3e-09 |  | COc1ccccc1CC(Oc1ncnc2sc(-c3cc(F)c(F)c(F)c3F)c(-c3ccc(OCCN4CCN(C)CC4)c(Cl)c3C)c12)C(=O)O [Example 525, (2R)-2-{[(5Sa)-5-{3-chloro-2-methyl-4-[2-(4-methylpiperazin-1-yl)ethoxy]phenyl}-6-(2,3,4,5-tetrafluorophenyl)thieno[2,3-d]pyrimidin-4-yl]oxy}-3-(2-methoxyphenyl)propanoic acid] | 0.755 | 
1.4e-08 |  | Cc1c(-c2c(-c3ccc(F)c(F)c3)sc3ncnc(OC(Cc4ccccc4OCc4ccnc(C(F)(F)F)n4)C(=O)O)c23)ccc(OCCN2CCN(C)CC2)c1Cl [Example 707, (2R)-2-{[(5Sa)-5-{3-chloro-2-methyl-4-[2-(4-methylpiperazin-1-yl)ethoxy]phenyl}-6-(3,4-difluorophenyl)thieno[2,3-d]pyrimidin-4-yl]oxy}-3-(2-{[2-(trifluoromethyl)pyrimidin-4-yl]methoxy}phenyl)propanoic acid] | 0.042 | 
1.7e-08 |  | COc1ccccc1CC(Oc1ncnc2sc(-c3cccc(C)c3)c(-c3ccc(OCCN4CCN(C)CC4)c(Cl)c3C)c12)C(=O)O [Example 546, (2R)-2-{[(5Sa)-5-{3-chloro-2-methyl-4-[2-(4-methylpiperazin-1-yl)ethoxy]phenyl}-6-(3-methylphenyl)thieno[2,3-d]pyrimidin-4-yl]oxy}-3-(2-methoxyphenyl)propanoic acid] | 0.416 | 
3.3e-08 |  | C#Cc1cccc(-c2sc3ncnc(OC(Cc4ccccc4OC)C(=O)O)c3c2-c2ccc(OCCN3CCN(C)CC3)c(Cl)c2C)c1 [Example 547, (2R)-2-{[(5Sa)-5-{3-chloro-2-methyl-4-[2-(4-methylpiperazin-1-yl)ethoxy]phenyl}-6-(3-ethynylphenyl)thieno[2,3-d]pyrimidin-4-yl]oxy}-3-(2-methoxyphenyl)propanoic acid] | 0.475 | 
 | 5.5e-09 | Cc1c(-c2c(-c3ccc(F)o3)sc3ncnc(OC(Cc4ccccc4OCCOCCO)C(=O)O)c23)ccc(OCCN2CCN(C)CC2)c1Cl [Example 195, (2R)-2-{[(5Sa)-5-{3-chloro-2-methyl-4-[2-(4-methylpiperazin-1-yl)ethoxy]phenyl}-6-(5-fluorofuran-2-yl)thieno[2,3-d]pyrimidin-4-yl]oxy}-3-{2-[2-(2-hydroxyethoxy)ethoxy]phenyl}propanoic acid] | 0.311 | 
